In ChEMBL document CHEMBL1144029, “Characterization of type II ligands in CYP2C9 and CYP3A4” (J Med Chem, 2008):

How the values were obtained:
Cytochrome P450 3A4 [1] = biological target: T1, Cytochrome P450 3A4 (Homo sapiens, UniProt P08684); experiment: Inhibition of human recombinant CYP3A4 expressed in Saccharomyces cerevisiae by fluorescence assay; format: ADME
Cytochrome P450 2C9 [2] = biological target: T2, Cytochrome P450 2C9 (Homo sapiens, UniProt P11712); experiment: Inhibition of human recombinant CYP2C9 expressed in Saccharomyces cerevisiae by fluorescence assay; format: ADME
Homo sapiens = organism: Homo sapiens; experiment: Selectivity for human recombinant CYP2C9 over human recombinant CYP3A4
Cytochrome P450 3A4 [3] = biological target: T1, Cytochrome P450 3A4; experiment: Binding affinity to purified human recombinant CYP3A4 expressed in Escherichia coli assessed as spectral dissociation constant; format: ADME
Cytochrome P450 2C9 [4] = biological target: T2, Cytochrome P450 2C9; experiment: Binding affinity to purified human recombinant CYP2C9 expressed in Escherichia coli assessed as spectral dissociation constant; format: ADME

T2 sequence (P11712 whole entry): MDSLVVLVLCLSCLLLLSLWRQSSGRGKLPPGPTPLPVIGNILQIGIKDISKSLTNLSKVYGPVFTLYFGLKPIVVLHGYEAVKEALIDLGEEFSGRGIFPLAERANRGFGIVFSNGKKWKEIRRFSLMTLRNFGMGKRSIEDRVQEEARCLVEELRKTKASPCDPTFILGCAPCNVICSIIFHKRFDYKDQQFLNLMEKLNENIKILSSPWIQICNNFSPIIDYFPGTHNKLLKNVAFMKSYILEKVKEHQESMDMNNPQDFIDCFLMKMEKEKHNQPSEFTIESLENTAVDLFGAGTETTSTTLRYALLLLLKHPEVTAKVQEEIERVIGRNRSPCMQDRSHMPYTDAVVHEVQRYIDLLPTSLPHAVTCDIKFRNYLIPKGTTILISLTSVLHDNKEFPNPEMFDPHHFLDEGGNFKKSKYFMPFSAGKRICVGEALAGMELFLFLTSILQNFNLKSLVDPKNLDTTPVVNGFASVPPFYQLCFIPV
T1 sequence (P08684 whole entry): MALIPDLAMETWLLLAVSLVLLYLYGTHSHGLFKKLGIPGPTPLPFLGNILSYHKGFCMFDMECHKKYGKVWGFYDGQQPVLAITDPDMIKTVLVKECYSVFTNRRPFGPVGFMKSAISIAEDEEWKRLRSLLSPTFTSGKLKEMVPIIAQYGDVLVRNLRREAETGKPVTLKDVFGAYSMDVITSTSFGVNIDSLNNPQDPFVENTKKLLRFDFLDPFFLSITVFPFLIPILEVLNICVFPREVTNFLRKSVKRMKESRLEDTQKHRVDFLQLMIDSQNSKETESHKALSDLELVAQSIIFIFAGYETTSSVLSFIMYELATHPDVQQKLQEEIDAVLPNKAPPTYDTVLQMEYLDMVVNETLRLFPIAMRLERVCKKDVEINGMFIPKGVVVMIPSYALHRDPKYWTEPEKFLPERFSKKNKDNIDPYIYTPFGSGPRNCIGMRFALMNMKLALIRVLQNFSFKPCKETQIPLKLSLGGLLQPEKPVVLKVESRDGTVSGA

Structure (SMILES): COc1ccc(-c2cc(CNS(=O)(=O)c3ccccc3)on2)cc1
- IC50 (Cytochrome P450 3A4 [1]): 33 µM
- IC50 (Cytochrome P450 2C9 [2]): 39 µM

Structure (SMILES): Brc1ccc(-n2c(SCc3ccccc3)nnc2-c2ccncc2)cc1
- IC50 (Cytochrome P450 3A4 [1]): 1.3 µM
- IC50 (Cytochrome P450 2C9 [2]): 4.3 µM

Structure (SMILES): O=C(Nc1ccccc1)OCc1cn(-c2ccc(Cl)cc2)nn1
- IC50 (Cytochrome P450 3A4 [1]): > 20 µM

Structure (SMILES): CS(=O)(=O)c1ccc(Cn2cc(-c3ccncc3)cn2)cc1
- IC50 (Cytochrome P450 3A4 [1]): 26 µM
- Selectivity ratio (Homo sapiens): 20
- IC50 (Cytochrome P450 2C9 [2]): 1.3 µM

Structure (SMILES): Cc1cnc(CNc2cc(-c3ccccc3)nc(-c3ccccn3)n2)nc1
- IC50 (Cytochrome P450 3A4 [1]): > 40 µM
- IC50 (Cytochrome P450 2C9 [2]): > 50 µM

Structure (SMILES): CCOC(=O)C(Cc1ccc(Cl)cc1Cl)c1ccno1 (centres undefined)
- IC50 (Cytochrome P450 3A4 [1]): 12 µM
- IC50 (Cytochrome P450 2C9 [2]): 11 µM

Structure (SMILES): CCOc1ccc(NC(=O)c2ccc(-n3cnnn3)cc2)cc1
- IC50 (Cytochrome P450 3A4 [1]): 34 µM
- IC50 (Cytochrome P450 2C9 [2]): > 30 µM

Structure (SMILES): CCn1c(SCc2ccc(OC)cc2)nnc1-c1ccncc1
- IC50 (Cytochrome P450 3A4 [1]): 28 µM
- IC50 (Cytochrome P450 2C9 [2]): > 50 µM

Structure (SMILES): Cc1cnc(CNc2cc(-c3ccccc3)nc(-c3ccncc3)n2)nc1
- IC50 (Cytochrome P450 3A4 [1]): 0.071 µM
- IC50 (Cytochrome P450 2C9 [2]): 4.8 µM

Structure (SMILES): CS(=O)(=O)Cc1cc(N2CCCC2)nc(-c2ccccc2)n1
- IC50 (Cytochrome P450 3A4 [1]): > 40 µM
- IC50 (Cytochrome P450 2C9 [2]): > 50 µM

Structure (SMILES): COC(=O)[C@H](Cc1cnc[nH]1)NCc1ccccc1
- IC50 (Cytochrome P450 3A4 [1]): 1.5 µM
- IC50 (Cytochrome P450 2C9 [2]): 20 µM

Structure (SMILES): CS(=O)(=O)Cc1cc(N2CCCC2)nc(-c2ccncc2)n1
- IC50 (Cytochrome P450 3A4 [1]): 1.3 µM
- IC50 (Cytochrome P450 2C9 [2]): > 50 µM

Structure (SMILES): CS(=O)(=O)OCC1COC(Cn2cncn2)(c2ccc(Cl)cc2Cl)O1 (centres undefined)
- IC50 (Cytochrome P450 3A4 [1]): 7.7 µM
- Kd (Cytochrome P450 3A4 [3]): 3.5 µM
- IC50 (Cytochrome P450 2C9 [2]): > 50 µM

Structure (SMILES): CCC1COC(Cn2cncn2)(c2ccc(Cl)cc2Cl)O1 (centres undefined) [ETACONAZOLE]
- IC50 (Cytochrome P450 3A4 [1]): 0.21 µM
- Kd (Cytochrome P450 3A4 [3]): 0.21 µM
- IC50 (Cytochrome P450 2C9 [2]): > 50 µM

Structure (SMILES): Clc1ccc(OC(Cn2ccnc2)c2ccc(Cl)cc2Cl)c(Cl)c1 (centres undefined)
- IC50 (Cytochrome P450 3A4 [1]): 0.06 µM
- IC50 (Cytochrome P450 2C9 [2]): 10 µM

Structure (SMILES): Cc1cc(C(C)(C)NC(=O)C(Br)C(C)(C)C)cc(C)n1 (centres undefined)
- IC50 (Cytochrome P450 3A4 [1]): 13 µM
- IC50 (Cytochrome P450 2C9 [2]): > 50 µM

Structure (SMILES): Cc1cnc(CNc2cc(-c3ccccc3)nc(-c3cccnc3)n2)nc1
- IC50 (Cytochrome P450 3A4 [1]): 9.6 µM
- IC50 (Cytochrome P450 2C9 [2]): 21 µM

Structure (SMILES): O[C@](Cn1cccn1)(c1ccc(F)cc1F)n1cncn1
- IC50 (Cytochrome P450 3A4 [1]): 44 µM
- IC50 (Cytochrome P450 2C9 [2]): > 50 µM

Structure (SMILES): Clc1ccc(C2(Cn3cncn3)CC(Br)CO2)c(Cl)c1 (centres undefined) [BROMUCONAZOLE]
- IC50 (Cytochrome P450 3A4 [1]): 0.13 µM
- IC50 (Cytochrome P450 2C9 [2]): 8.1 µM

Structure (SMILES): Clc1ccc(Cn2cc(-c3ccncc3)cn2)c(Cl)c1
- IC50 (Cytochrome P450 3A4 [1]): 0.23 µM
- Kd (Cytochrome P450 2C9 [4]): 3.6 µM
- Kd (Cytochrome P450 3A4 [3]): 0.38 µM
- IC50 (Cytochrome P450 2C9 [2]): 0.5 µM
